In patent publication US9994852B2, “Oligonucleotide compositions and uses thereof” (MIRAGEN THERAPEUTICS, INC., priority 2015, dated 2018):
“Also recorded” adds a separate entry of the source. l = locked nucleic acid (LNA); d = 2'-deoxy (DNA)

Key:
Format in all cases: cell-based, human
miR-155-5p [1] = assay: Real time PCR of miR-155 direct target genes in CTCL cell lines treated with antimiR-155 (passive uptake); conditions: for gene expression signature of four direct targets of miR-155-5p vs untreated cells: MJ and HuT102 cells, 72 hours; for gene expression signature of four direct targets of miR-155-5p vs untreated cells / antimiR activity by four-gene signature (Bach1, Jarid2, Picalm, Ship1): 10 μM; for target de-repression: HuT102 and MyLa cell lines; for antimiR activity by four-gene signature (Bach1, Jarid2, Picalm, Ship1): cumulative data across 2 μM, 50 μM and three mycosis fungoides cell lines
Method: CTCL cell lines were cultured in complete growth medium with the addition of antimiR-155 compound 1 (SEQ ID NO: 27), compound 2 (SEQ ID NO: 22), compound 3 (SEQ ID NO: 23), and compound 4 (SEQ ID NO: 25) at concentrations ranging from 2 μM to 50 μM. The antimiRs were added to the medium without any additional components to enhance cellular uptake. Cells were harvested after 72 hours of treatment and total RNA was purified. Real time PCR was performed for 13 direct gene targets of miR-155 (Worm et al. 2009; O'Connell et al. 2010; Zhang et al. 2012; and miRagen unpublished data). The relative fold-change in the expression of the 13 genes in the antimiR-treated cells compared to the untreated cells was calculated. […] Four predicted direct targets that lacked expression in at least one cell line were omitted. The gene expression fold-changes were log 10-transformed, plotted on a grayscale, representing the highest relative increase in gene expression, and conversely, the greatest reduction in gene expression.
Four direct gene targets of miR-155-5p (Bach1, Jarid2, Picalm, and Ship1) were chosen for additional analysis, as these four genes were modulated by antimiR-155 in all three mycosis fungoides cell lines (MJ, HuT102, and My-La). These genes were chosen to represent the gene expression signature for antimiR activity in vitro. Additionally, the four-gene signature was used to compare the activity of the antimiR compounds. These gene changes were reproducible over three independent experiments with cells of varying passage numbers. FIGS. 3, 4, 5, 6, and 7 show the fold-change results of this four-gene signature in the HuT102, MJ, HH, My-La, and Hut78 cell lines, respectively. * p-value<0.0001 vs untreated by nonparametric Mann-Whitney test. The Mann-Whitney test was chosen because the variances are unequal between the treatments compared to untreated cells.
The control oligonucleotide was a 14-nucleotide antimiR targeting a C. elegans miRNA not expressed in mammals (control 1). The second oligo is a scramble of the 14-nucleotide sequence of antimiR-155 compound 4 (control 2). The MJ and HuT102 cell lines were incubated with 10 μM antimiR-155 compounds 3 (SEQ ID NO: 23) or 4 (SEQ ID NO: 25) or the two control oligos for 72 hours.

miR-155-5p [2] = assay: Whole genome expression profiling of CTCL cell lines treated with antimiR-155
Method: To gain a more complete understanding of the molecular consequences of miR-155 inhibition in mycosis fungoides cell lines, whole genome transcriptome profiling was performed on MJ and HuT102 cell lines treated with antimiR-155 compounds 3 (SEQ ID NO: 23) or 4 (SEQ ID NO: 25) for 4 days (96 hours) or 8 days. The statistically-significant gene expression signature was defined by one-way ANOVA for antimiR-treated cells compared to untreated cells at the same time point. […] The fold-change results are shown in FIGS. 9 and 10 as heat maps, as described for FIG. 2.
The gene expression profile common to both cell lines and both compounds at Day 4 was analyzed for the enrichment of miR-155-5p seed-matched gene targets (8-, 7-, and 6-nucleotide binding sites). The fold-change of these genes is represented in a heat map in FIG. 11. […] The gene signature was also analyzed using the DAVID bioinformatic resource for functional gene annotation enrichment (Huang da et al., 2009). There was no significant enrichment of Gene Ontology database terms as defined by a Benjamini-corrected p-value of <0.01.
The gene expression signature common to both cell lines and both compounds at Day 8 (677 genes in total) was subjected to analysis for enrichment of seed-matched gene targets and for functional gene annotation.
The activity of antimiR-155 compound 4 (SEQ ID NO: 25) was further investigated by treating the third mycosis fungoides cell line, MyLa, with compound 4 (SEQ ID NO: 25) for 4 days and 8 days and profiling the changes in gene expression. To test the specificity of compound 4 (SEQ ID NO: 25), cells of the Sézary syndrome cell line (HuT78) were treated with compound 4 (SEQ ID NO: 25) for 8 days and the changes in gene expression were profiled. Genes that are statistically changed with a false discovery rate (FDR) corrected p-value of <0.05 in response to compound 4 (SEQ ID NO: 25) in three mycosis fungoides cell lines, HuT102, MJ, and My-La, are depicted in the heat map as described above. The total number of genes in the heat map is 324. […]

HuT102 cells [3] = assay: Proliferation of HuT102 cells (cell number by ATP level); conditions: for proliferation (cell number by ATP): over time
Method: (§1) Since the level of ATP correlates directly with cell number, ATP was measured to determine the cell number. […] The reduction in cell number was accompanied by an increase in apoptosis as measured by caspase 3/7 activity (FIG. 14B). The caspase 3 and 7 proteins are members of the cysteine aspartic acid-specific protease (caspase) family. The caspase family plays key effector roles in apoptosis in mammalian cells. Caspase activity was normalized to ATP levels, as all cells have a low level of basal caspase activity that can confound the results if not normalized appropriately.
(§2) In addition to a time course, a dose titration of antimiR-155 compounds in HuT102 cells was performed with ATP and caspase 3/7 measurements performed after eight days of treatment (FIGS. 15A and 15B, respectively).

HuT102 cells [4] = assay: Apoptosis by caspase 3/7 activity in HuT102 cells; conditions: for apoptosis (caspase 3/7 activity normalized to ATP): over time
Method: as §1, §2

My-La cells [5] = assay: Proliferation of My-La cells (ATP)
Method: (§3) FIGS. 17A and 17B show proliferation and activation of caspase 3/7 over time with compounds 3 (SEQ ID NO: 23) and 4 (SEQ ID NO: 25).
(§4) In addition to a time course, a dose titration of antimiR-155 compounds in My-La cells was performed with ATP and caspase 3/7 measurements after eight days of treatment (FIGS. 18A and 18B, respectively).

My-La cells [6] = assay: Caspase 3/7 activity in My-La cells; conditions: over time
Method: as §3, §4

HuT102 cells [7] = assay: AntimiR-155 combined with HDAC inhibitor SAHA: caspase 3/7 activity in HuT102 cells; conditions: 10 μM compound combined with 0.25 or 0.5 μM SAHA
Method: Vorinostat (chemical name: SAHA) is a standard-of-care epigenetic therapy for patients with advanced mycosis fungoides. However, the side-effects of pan-HDAC inhibitors are well-described. To determine whether a combination therapy might show enhanced activity compared to treatment with individual compounds, HuT102 cells were treated with a sub-efficacious dose of SAHA combined with antimiR-155.
HuT102 cells were treated with 0.25 μM SAHA and 10 μM compound 3 (SEQ ID NO: 23) or 4 (SEQ ID NO: 25), individually or in combination. Cells were harvested daily to measure ATP levels and caspase 3/7 activity. A similar experiment was performed with 0.50 μM SAHA.
FIGS. 20A and 20B show the effect on caspase 3/7 activity.

miR-155 = assay: Dual luciferase reporter assay with miR-155 binding site in HeLa cells; conditions: 10 nM miR-155 mimic, 2 nM oligonucleotide
Source text: To assess the activity of a miR-155 inhibitor, a dual luciferase reporter assay system was used. In brief, the binding site for miR-155 was cloned into the 3′ UTR of the Renilla luciferase gene located within the commercially-available psiCHECK-2 vector system (Promega). In the absence of a miR-155 inhibitor, the expression of Renilla luciferase protein is repressed by a miR-155 mimic. In the presence of a miR-155 inhibitor, the expression of Renilla luciferase protein is de-repressed. […] Expression of either Renilla or firefly luciferase is measured through detection of light emitted by the luciferase protein.
50 ng of the dual luciferase reporter plasmid containing the miR-155 binding site was transfected into HeLa cells without a miR-155 mimic (“Reporter” only), with 10 nM miR-155 mimic (“Reporter+mimic”), with 10 nM miR-155 mimic and 2 nM of the control oligonucleotide, or with 10 nM miR-155 mimic and 2 nM of a test miR-155 oligonucleotide inhibitor of 11-14 nucleotide lengths (Table 4). The miR-155 mimic was purchased from Dharmacon (miRIDIAN microRNA Human hsa-miR-155-5p mimic; Accession number MIMAT0000646; catalog # C-300647-05-0005) and contains the mature miRNA sequence: -[…]- (SEQ ID NO: 121). The control oligonucleotide used in the experiment had the following sequence: 5′-lCs.dTs.dAs.lGs.dAs.lAs.dAs.lGslAs.dGs.lTs.dAs.lGs.lA-3′ (SEQ ID NO: 122).

| Substance | gene expression signature of four direct targets of miR-155-5p vs untreated cells (miR-155-5p [1]) | target de-repression (miR-155-5p [1]) | antimiR activity by four-gene signature (Bach1, Jarid2, Picalm, Ship1) (miR-155-5p [1]) | number of genes up- or down-regulated in all three mycosis fungoides cell lines (Table 2) (miR-155-5p [2]; HuT102, MJ, MyLa, Day 4 or Day 8) | magnitude of gene regulation (whole genome heat map) (miR-155-5p [2]; MJ and HuT102 cells, 4 days and 8 days) | change in gene expression (miR-155-5p [2]; Sézary syndrome cell line HuT78, 8 days) | proliferation (ATP) (HuT102 cells [3]; day 8 of treatment) | proliferation (cell number by ATP) (HuT102 cells [3]) | caspase 3/7 activity (HuT102 cells [4]; day 8 of treatment) | apoptosis (caspase 3/7 activity normalized to ATP) (HuT102 cells [4]) | apoptosis (caspase 3/7 activity normalized to ATP) (HuT102 cells [4]; listed as Compound 4) | proliferation (ATP) (My-La cells [5]; dose titration, eight days of treatment) | proliferation (ATP) (My-La cells [5]; over time) | activation of caspase 3/7 (My-La cells [6]) | apoptosis (caspase 3/7 activity) (HuT102 cells [7]) | de-repression of Renilla luciferase expression (miR-155) |
| --- | --- | --- | --- | --- | --- | --- | --- | --- | --- | --- | --- | --- | --- | --- | --- | --- |
| 5′-lCs.dGs.lAs.lTs.lTs.dAs.lGs.dCs.lAs.lTs.lTs.lA-3′ (CGATTAGCATTA; sugars from the 5' end ldllldldllll, all phosphorothioate, methylation of C not given here) [compound 3] | statistically significantly different from that of untreated cells | – | – | – | – | – | – | – | – | – | – | – | – | – | – | – |
| 5′-lCs.dAs.lCs.dGs.dAs.lTs.lTs.dAs.lGs.dCs.lAs.lTs.lTs.lA-3′ (CACGATTAGCATTA; sugars from the 5' end ldlddlldldllll, all phosphorothioate, methylation of C not given here) [compound 4] | statistically significantly different from that of untreated cells | greater target de-repression than antimiR-155 compound 3 (SEQ ID NO: 23) | more active than compounds 1 (SEQ ID NO: 27) and 3 (SEQ ID NO: 23) | 587 | greater magnitude of gene regulation in both cell lines and at both time points | did not show much change in the gene expression | confirm the inhibitory potential | greater inhibition of proliferation; also recorded: comparable to that seen with bexarotene | confirm the inhibitory potential | greater apoptotic activity | greater induction of apoptosis than bexarotene | further confirm the inhibitory potential | greater inhibition of proliferation; also recorded: greater activity compared to compound 3 (SEQ ID NO: 23) | greater apoptotic activity; also recorded: greater activity compared to compound 3 (SEQ ID NO: 23) | increased apoptosis compared to each treatment alone | – |
| 5′-lCs.dTs.dAs.lGs.dAs.lAs.dAs.lGslAs.dGs.lTs.dAs.lGs.lA-3′ (CTAGAAAGAGTAGA; sugars from the 5' end lddldldlldldll, all phosphorothioate, methylation of C not given here) [control oligonucleotide, control oligonucleotide used in the dual luciferase reporter experiment] | – | – | – | – | – | – | – | – | – | – | – | – | – | – | – | did not de-repress the expression of luciferase |
| 5′-lCs.dGs.lAs.lTs.lTs.lAs.lGs.dCs.lAs.lTs.lTs.lA-3′ (CGATTAGCATTA; sugars from the 5' end l1 d1 l5 d1 l4, all phosphorothioate, methylation of C not given here) [compound 2] | – | greater target de-repression than antimiR-155 compound 3 (SEQ ID NO: 23) | more active than compounds 1 (SEQ ID NO: 27) and 3 (SEQ ID NO: 23) | – | – | – | – | greater inhibition of proliferation | – | greater apoptotic activity | – | – | greater inhibition of proliferation | greater apoptotic activity | – | – |
